From patent publication US20230125249A1 (FIRMENICH SA, priority 2017, published 2023)
Like-named read-outs stand apart in the source and are kept apart here.

Columns and labels:
[1] = target: T1, OR5AN1 olfactory receptor (Homo sapiens, UniProt Q8NGI8); test: MUSCENONE®/musk dose-response on OR5AN1 in presence and absence of putative modulator (EC50 shift, span); assay type: cell-based; settings: FIG. 6; MUSCENONE® dose response in the presence of 250 μM compound
T1 construct: expressed in transfected cells
T1 sequence (Q8NGI8 1-311): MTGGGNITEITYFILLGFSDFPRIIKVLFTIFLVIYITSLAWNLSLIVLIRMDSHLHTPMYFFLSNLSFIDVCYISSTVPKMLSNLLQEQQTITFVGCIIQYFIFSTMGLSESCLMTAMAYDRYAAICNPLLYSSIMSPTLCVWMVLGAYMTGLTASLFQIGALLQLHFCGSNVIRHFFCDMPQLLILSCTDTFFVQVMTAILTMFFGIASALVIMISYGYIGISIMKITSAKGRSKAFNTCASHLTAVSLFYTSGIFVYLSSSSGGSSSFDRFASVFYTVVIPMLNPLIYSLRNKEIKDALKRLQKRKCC

[2] = target: T1, OR5AN1 olfactory receptor; test: Single point binary mixture screen (MUSCENONE® + test compound) on a cell line expressing OR5AN1; assay type: cell-based; settings: MUSCENONE® 10 μM + test compound 500 μM, compared to MUSCENONE® alone
Method: 481 binary mixtures were created by mixing a MUSCENONE® stock solution with a stock solution of each test compound to a final concentration 10 and 500 μM, respectively. Stock solutions were made of compounds dissolved in pure DMSO. Each mixture was presented to a cell line expressing the OR5AN1 olfactory receptor. The final concentration of DMSO in each binary mixture was 0.17%, and had no visible effect on the cells
The resulting activation was then measured and compared to MUSCENONE® alone (defining the baseline of the enhancement assay). The quality of the HTS process was determined and the window variability and signal reliability were assessed by calculating the Z′ value of each plate. Twenty hits were obtained, five of which were macrocyclic ketone and nitromusk OR5AN1 olfactory receptor agonists (hit n° 1, 2, 3, 5 and 9). These OR5AN1 olfactory receptor agonists further confirmed that the dynamic range of the assay window was sufficient (as the responses recorded were well above baseline) and thus likely sensitive enough to detect even low levels of putative enhancement.

[3] = target: T1, OR5AN1 olfactory receptor; test: Allosteric EC50 shift analysis: MUSCENONE® dose response with serial concentrations of enhancer; assay type: cell-based; settings: same method as for TDA
Method: The level of enhancement of the OR5AN1 olfactory receptor activation was evaluated at distinct concentrations of the enhancer. […] The curves were obtained by applying the simplified Allosteric EC50 shift effect equation (available in Prism5, v. 5.02) derived from the ternary complex interaction model.

[4] = test system: OR5AN1 allele 4; test: Cell based assay of hypofunctional OR5AN1 allele 4 with and without enhancer; parameters: species or system human
[5] = target: T1, OR5AN1 olfactory receptor; test: Response of the OR5AN1 olfactory receptor to musk compounds (HTRF); assay type: cell-based
[6] = test system: OR5AN1 allele 3; test: Cell based assay of hypofunctional OR5AN1 allele 3 with and without enhancer; parameters: species or system human
[7] = Odor detection threshold (ODT) forced-choice triangle test with background odor; assay type: in vivo, human
Method: Sensitivity of human individuals to MUSCENONE® was evaluated by performing an odor detection threshold (ODT) test. The ODT test consisted of identifying the concentration for which 50% of the panelists are able to determine which of three containers contains the target compound Muscenone® in a forced-choice triangle tests. Two tests were performed to calculate the ODT in mixtures containing Muscenone® plus a perceivable background odor of chemically similar molecules a) the enhancer tridecylenic aldehyde and b) the non-enhancing volatile compound, nonanal.
27 panelists were given a series of triangle tests with increasing concentration of MUSCENONE® in the presence of nonanal at a concentration of 0.1%. Within each triangle test, the three samples contained nonanal at 0.1% and one sample also contained MUSCENONE®. In each triangle test, the panelists were asked to identify the one sample that was different from the other two samples. The ODT was calculated by fitting a non-linear regression model onto the data and calculating the MUSCENONE® concentration at which the proportion of correct responses was equal to ⅔ (the midpoint between chance rate ⅓ and all correct answers 1). […]

[8] = target: T1, OR5AN1 olfactory receptor; test: MUSCENONE®/musk dose-response on OR5AN1 in presence and absence of putative modulator (EC50 shift, span); assay type: cell-based; settings: MUSCENONE® dose response in the presence of 250 μM compound
Method: Next, two parallel dose-response experiments to confirm the true enhancement properties of the potential candidates were performed. First, a dose-response of each individual candidate was performed to determine if it was an agonist by itself.
The resulting enhancement was quantified by means of EC50-fold shift (potency increase) and the efficacy span ratio (efficacy increase).
The EC50-fold shift was obtained by dividing the EC50 of MUSCENONE® +compound by the reference EC50 MUSCENONE® alone. The span ratio was obtained by dividing the span of MUSCENONE®+compound by the reference span of MUSCENONE® alone.

## CC1=CCCC2(CCCCC2)C1/C=C/C=O (racemic) [(+−)-(2E)-3-(2-methylspiro [5.5]undec-2-en-1-yl) acrylaldehyde]
[1]
  Inhibition of the activity of the OR5AN1 olfactory receptor: inhibit the activity

## CC(C)=CCCC(C)C/C=C/C=O (racemic) [Compound 5, (+−)-(2E)-5,9-dimethyl-2,8-decadienal]
[2]
  Hit Type: Agonist

## CC12C3CC(CC31)[C@]2(C)C/C=C/C=O (single isomer, unassigned; (+))
[1]
  Inhibition of the activity of the OR5AN1 olfactory receptor: inhibit the activity

## CC(C)c1cccc(C(C)CC=O)c1 (stereo not drawn) [3-(3-propan-2-ylphenyl)butanal]
[1]
  Inhibition of the activity of the OR5AN1 olfactory receptor: inhibit the activity

## O=CCCc1ccccc1 [3-phenylpropanal]
[1]
  Inhibition of the activity of the OR5AN1 olfactory receptor: inhibit the activity

## CC/C=C\CC/C=C/CO [(E)-2-(Z)-6-nonadien-1-ol]
[1]
  Inhibition of the activity of the OR5AN1 olfactory receptor: inhibit the activity

## CCCCCCCCC/C=C/C(=O)O [(E)-2-dodecenoic acid]
[1]
  Inhibition of the activity of the OR5AN1 olfactory receptor: inhibit the activity

## CCC/C=C/C=O [(E)-2-hexenal]
[1]
  Inhibition of the activity of the OR5AN1 olfactory receptor: inhibit the activity

## CCCCCCCCCC/C=C/C(=O)O [(E)-2-tridecenoic acid]
[1]
  Inhibition of the activity of the OR5AN1 olfactory receptor: inhibit the activity

## CCCCCCCCCC/C=C/CO [(E)-2-tridecenol]
[1]
  Inhibition of the activity of the OR5AN1 olfactory receptor: inhibit the activity

## CCCCCCCC/C=C/C(=O)O [(E)-2-undecenoic acid]
[1]
  Inhibition of the activity of the OR5AN1 olfactory receptor: inhibit the activity

## COc1ccccc1/C=C/C=O [(E)-3-(2-methoxyphenyl)prop-2-enal]
[1]
  Inhibition of the activity of the OR5AN1 olfactory receptor: inhibit the activity

## CCCCC/C=C/CCC=O [(E)-dec-4-enal]
[1]
  Inhibition of the activity of the OR5AN1 olfactory receptor: inhibit the activity

## CC/C=C\CCCCCO [(Z)-6-nonen-1-ol]
[1]
  Inhibition of the activity of the OR5AN1 olfactory receptor: inhibit the activity

## CCCCCCCC=CC=O [Compound 2-decenal, 2-decenal]
[3]
  Allosteric modulation properties: allosteric modulation properties similar to TDA

## CCCCCC/C=C/C=O [Compound 6]
[2]
  Hit Type: Enhancement

## CCCCCCCCCCC/C=C/C=O [Compound 7, (E)-2-tetradecenal]
[2]
  Hit Type: Agonist

## CCCCCCC/C=C/C=O [Compound 11]
[2]
  Hit Type: Enhancement

## CCC/C=C/C=O [Compound 12]
[2]
  Hit Type: Enhancement

## COC(=O)c1ccccc1OC [Compound 16]
[2]
  Hit Type: Enhancement

## CC(=O)c1ccccc1N [Compound 20]
[2]
  Hit Type: Enhancement

## CC1CC=CCCCCCCCCCC(=O)C1 (stereo not drawn) [MUSCENONE®]
[4]; allele 4, absence of enhancer
  Activity (span): 2328 relative fluorescent HTRF units
  EC50: 10.1 µM
[4]; allele 4, in the presence of 250 μM tridecylenic aldehyde
  EC50: 1.6 µM
[4]; allele 4, in the presence of tridecylenic aldehyde
  Activity (span): 5026 relative fluorescent HTRF units
[5]; FIG. 1a
  Activation of the OR5AN1 olfactory receptor: specifically activated
[5]; efficacy, maximum span
  Span (HTRF ratio): 3629 HTRF ratio
[6]; allele 3, absence of enhancer
  Activity (span): 2311 relative fluorescent HTRF units
  EC50: 9 µM
[6]; allele 3, in the presence of 250 μM tridecylenic aldehyde
  EC50: 1.5 µM
[6]; allele 3, in the presence of tridecylenic aldehyde
  Activity (span): 4663 relative fluorescent HTRF units
[7]; in the presence of nonanal at 0.1%, 27 panelists
  ODT (odor detection threshold): 0.93%
[7]; in the presence of tridecylenic aldehyde at 0.1%, 28 panelists
  ODT (odor detection threshold): 0.09%

## C[C@@H]1CCCCCCCCCCCCC(=O)C1 [Muscone]
[5]; FIG. 1a
  Activation of the OR5AN1 olfactory receptor: specifically activated
[5]; efficacy, maximum span
  Span (HTRF ratio): 2979 HTRF ratio

## CC(=O)c1c(C)c([N+](=O)[O-])c(C(C)(C)C)c([N+](=O)[O-])c1C [Musk ketone]
[5]; FIG. 1a
  Activation of the OR5AN1 olfactory receptor: specifically activated
[5]; efficacy, maximum span
  Span (HTRF ratio): 4312 HTRF ratio

## Cc1c([N+](=O)[O-])c(C)c([N+](=O)[O-])c(C(C)(C)C)c1[N+](=O)[O-] [Musk xylol]
[5]
  Activation of the OR5AN1 olfactory receptor: specifically activated
  Span (HTRF ratio): 4217 HTRF ratio

## CC/C(=C\CC1CC=C(C)C1(C)C)CO (stereo not drawn) [bacdanol]
[1]
  Inhibition of the activity of the OR5AN1 olfactory receptor: inhibit the activity

## SCc1ccco1 [furfuryl mercaptan]
[1]
  Inhibition of the activity of the OR5AN1 olfactory receptor: inhibit the activity

## CCCCCCCCC=O [nonanal, reference compound]
[8]
  OR5AN1 Musk response enhancement: non-enhancing

## CCCCCC/C=C/C=O [nonylenic aldehyde]
[3]
  Allosteric modulation properties: allosteric modulation properties similar to TDA

## CCCCCCCC=O [octanal]
[1]
  Inhibition of the activity of the OR5AN1 olfactory receptor: inhibit the activity

## CCCCCOC(=O)CCCC [pentyl valerate]
[1]
  Inhibition of the activity of the OR5AN1 olfactory receptor: inhibit the activity

## CC1C2CC(CC2C2CCCC(O)C2)C1(C)C (stereo not drawn) [sandenol]
[1]
  Inhibition of the activity of the OR5AN1 olfactory receptor: inhibit the activity

## C/C(C=O)=C\CCc1ccc(C(C)(C)C)cc1 [trans-5-(4-tert-butylphenyl)-2-methylpent-2-enal]
[1]
  Inhibition of the activity of the OR5AN1 olfactory receptor: inhibit the activity

## C=CCCCCCCCCC(=O)O [undecenoic acid]
[8]
  OR5AN1 Musk response enhancement: absence of enhancement

## (2E)-7,8-dimethyl-2,7-nonadienal [Compound 1]
[2]
  Hit Type: Agonist

## (2E)-7-methyl-2,6-octadienal [Compound 3]
[2]
  Hit Type: agonists

## Trans-2,6,7-dimethyl-2,6-octadienal [Compound 9]
[2]
  Hit Type: agonists
